Reference: patent US7713701B2, “DNA-binding polymers” (California Institute of Technology, priority 2004, dated 2010)
“And” between values parts separate entries of the source, which are not always exact repeats. Identical values can stand only once.

Experiments:
[1] = tested on: T-A base pair at N-terminal position of binding site 5′-A T N T A C A-3′ (N=T), 285 bp PCR product from plasmid pCW15; assay: Quantitative DNase I footprint titration, T-A site; conditions: for Equilibrium association constant, T-A: DNase I footprint titration, 22° C., pH 7.0, 10 mM Tris-HCl, 10 mM KCl, 10 mM MgCl2, 5 mM CaCl2, mean of at least three, SD in parentheses; for preference / specificity for T-A relative to G-C / selectivity for T-A relative to A-T: ratio of association constants
Procedure: (§1) Oligonucleotide primers SF1 (5′-AATTC-GAGCTCGGTACCGGGG-3′; SEQ ID NO:1) and SF2(5′-[…]-3′; SEQ ID NO:2) were synthesized by the Biopolymer Synthesis Center at the California Institute of Technology. Products from PCR amplification of the pCW15 using 5′-[γ-^32P]-labeled SF1 and SF2 were purified on a 7% non-denaturing polyacrylamide gel. Glycogen (20 mg/mL), dNTPs (PCR nucleotide mix), and all enzymes, unless otherwise stated, were purchased from Boehringer-Mannheim. Deoxyadenosine [γ-^32P]triphosphate was obtained from ICN. Calf thymus DNA (sonicated, deproteinized) and DNase I (7500 units/mL. FPLC pure) were from Amersham Pharmacia. AmpliTaq DNA polymerase was obtained from Perkin-Elmer and was used with provided buffers. Tris.HCl, DTT, RNase-free water, and 0.5 M EDTA were from United States Biochemical. Calcium chloride, potassium chloride, and magnesium chloride were purchased from Fluka. Tris-borate-EDTA was from GIBCO and bromophenol blue was from Acros. All reagents were used without further purification.
(§2) The DNA sequence specificity of novel thiophene-2-carboxamide-containing polymers (DNA-binding polymers 1-8) was evaluated by comparing their affinities for each Watson-Crick base pair to those of N-methylimidazole (Im) and N-methylpyrrole (Py) (DNA-binding polymers 9-10). […] Affinities were determined using DNase I footprinting, as performed by standard protocols (e.g., Trauger et al., Methods Enzymol. 2001, 340, 450).
(§3) Briefly, Quantitative DNase I footprinting titration experiments (10 mM Tris-HCl. 10 mM KCl, 10 mM MgC2, 5 mM CaCl2, pH 7.0, 22° C.) were performed on 5′-^32P end-labeled, 285 bp PCR product from plasmid construct pCW15 (as described previously in Ellervik et al., J. Am. Chem. Soc. 2000, 122, 9354). This plasmid contains four binding sites that vary at a single N-terminal position, 5′-A T N T A C A-3′, where N=T, A, G, C. The divergent behavior of control DNA-binding polymers 9 and 10 illustrates the need for development of new N-terminal residues.

[2] = tested on: A-T base pair at N-terminal position of binding site 5′-A T N T A C A-3′ (N=A), 285 bp PCR product from plasmid pCW15; assay: Quantitative DNase I footprint titration, A-T site; conditions: 22° C., pH 7.0, 10 mM Tris-HCl, 10 mM KCl, 10 mM MgCl2, 5 mM CaCl2, mean of at least three, SD in parentheses
Procedure: as §1, §2, §3

[3] = tested on: G-C base pair at N-terminal position, binding site 5′-A T G T A C A-3′, 285 bp PCR product from plasmid pCW15; assay: Quantitative DNase I footprint titration, G-C site; conditions: for Equilibrium association constant, G-C: DNase I footprint titration, 22° C., pH 7.0, 10 mM Tris-HCl, 10 mM KCl, 10 mM MgCl2, 5 mM CaCl2, mean of at least three, SD in parentheses
Procedure: as §1, §2, §3

[4] = tested on: C-G base pair at N-terminal position of binding site 5′-A T N T A C A-3′ (N=C), 285 bp PCR product from plasmid pCW15; assay: Quantitative DNase I footprint titration, C-G site; conditions: 22° C., pH 7.0, 10 mM Tris-HCl, 10 mM KCl, 10 mM MgCl2, 5 mM CaCl2, mean of at least three, SD in parentheses
Procedure: as §1, §2, §3

[5] = tested on: four binding sites 5′-A T N T A C A-3′, N=T, A, G, C, of pCW15 PCR product; assay: DNase I footprinting, sequence specificity across the four sites; conditions: comparison of affinities for the four Watson-Crick base pairs
Procedure: as §1, §2, §3

Equilibrium association constant, T-A [1] | Equilibrium association constant, A-T [2] | Equilibrium association constant, G-C [3] | Equilibrium association constant, C-G [4] | preference / specificity for T-A relative to G-C [1] | selectivity for T-A relative to A-T [1] | preference for G-C relative to T-A, A-T, and C-G base pairs ([3]; ratio of association constants) | Structure (SMILES) | sequence specificity (in words) [5]
5.9 (0.3) × 10^9 M^−1 | 2.9 (0.1) × 10^9 M^−1 | 6.6 (0.4) × 10^8 M^−1 | 6.0 (0.2) × 10^8 M^−1 |  |  |  | CC(=O)Nc1ccsc1C(=O)Nc1cc(C(=O)Nc2cc(C(=O)Nc3cc(C(=O)NCCCC(=O)Nc4cn(C)c(C(=O)Nc5cc(C(=O)Nc6cc(C(=O)Nc7cc(C(=O)NCCC(=O)NCCCN(C)C)n(C)c7)n(C)c6)n(C)c5)n4)n(C)c3)n(C)c2)n(C)c1 [compound 4] | distinguish T-A from G-C but again do not distinguish T-A from A-T
2×10^9 M^−1 and 2.0 (0.4) × 10^9 M^−1 | 3.2 (0.6) × 10^8 M^−1 | ≦1.0 × 10^7 M^−1 | ≦1.0 × 10^7 M^−1 | > 200 fold | 6 fold |  | COc1ccsc1C(=O)Nc1cc(C(=O)Nc2cc(C(=O)Nc3cc(C(=O)NCCCC(=O)Nc4cn(C)c(C(=O)Nc5cc(C(=O)Nc6cc(C(=O)Nc7cc(C(=O)NCCC(=O)NCCCN(C)C)n(C)c7)n(C)c6)n(C)c5)n4)n(C)c3)n(C)c2)n(C)c1 [compound 6] | 
6.0 (0.7) × 10^9 M^−1 | 4.7 (0.7) × 10^9 M^−1 | 4.3 (0.4) × 10^8 M^−1 | 2.2 (0.3) × 10^9 M^−1 |  |  |  | CN(C)CCCNC(=O)CCNC(=O)c1cc(NC(=O)c2cc(NC(=O)c3cc(NC(=O)c4nc(NC(=O)CCCNC(=O)c5cc(NC(=O)c6cc(NC(=O)c7cc(NC(=O)c8cccs8)cn7C)cn6C)cn5C)cn4C)cn3C)cn2C)cn1C [compound 1] | little sequence specificity
1.2 (0.2) × 10^10 M^−1 | 3.9 (0.3) × 10^9 M^−1 | 3.7 (0.4) × 10^8 M^−1 | 2.9 (0.3) × 10^8 M^−1 |  | 3 fold |  | CN(C)CCCNC(=O)CCNC(=O)c1cc(NC(=O)c2cc(NC(=O)c3cc(NC(=O)c4nc(NC(=O)CCCNC(=O)c5cc(NC(=O)c6cc(NC(=O)c7cc(NC(=O)c8sccc8F)cn7C)cn6C)cn5C)cn4C)cn3C)cn2C)cn1C [compound 7] | 
1.3 (0.2) × 10^10 M^−1 | 3.7 (0.2) × 10^9 M^−1 | 3.1 (0.6) × 10^8 M^−1 | 2.1 (1.1)× 10^8 M^−1 |  | 3 fold |  | CN(C)CCCNC(=O)CCNC(=O)c1cc(NC(=O)c2cc(NC(=O)c3cc(NC(=O)c4nc(NC(=O)CCCNC(=O)c5cc(NC(=O)c6cc(NC(=O)c7cc(NC(=O)c8sccc8Cl)cn7C)cn6C)cn5C)cn4C)cn3C)cn2C)cn1C [compound 8] | 
6.2 (0.6) × 10^9 M^−1 | 4.5 (0.6) × 10^9 M^−1 | 2.1 (0.3) × 10^8 M^−1 | 8.4 (0.1) × 10^7 M^−1 |  |  |  | CN(C)CCCNC(=O)CCNC(=O)c1cc(NC(=O)c2cc(NC(=O)c3cc(NC(=O)c4nc(NC(=O)CCCNC(=O)c5cc(NC(=O)c6cc(NC(=O)c7cc(NC(=O)c8sccc8O)cn7C)cn6C)cn5C)cn4C)cn3C)cn2C)cn1C [compound 5] | distinguish T-A from G-C but again do not distinguish T-A from A-T
3.8 (0.3) × 10^9 M^−1 | 2.8 (0.2) × 10^9 M^−1 |  | 3.2 (0.4) × 10^9 M^−1 |  |  | > 15 fold | CN(C)CCCNC(=O)CCNC(=O)c1cc(NC(=O)c2cc(NC(=O)c3cc(NC(=O)c4nc(NC(=O)CCCNC(=O)c5cc(NC(=O)c6cc(NC(=O)c7cc(NC(=O)c8nccn8C)cn7C)cn6C)cn5C)cn4C)cn3C)cn2C)cn1C [compound 9] | 
6.3 (1.0) × 10^9 M^−1 | 4.6 (0.6) × 10^9 M^−1 | 7.8 (0.9) × 10^8 M^−1 | 2.2 (0.3) × 10^8 M^−1 |  |  |  | CN(C)CCCNC(=O)CCNC(=O)c1cc(NC(=O)c2cc(NC(=O)c3cc(NC(=O)c4nc(NC(=O)CCCNC(=O)c5cc(NC(=O)c6cc(NC(=O)c7cc(NC(=O)c8sccc8N)cn7C)cn6C)cn5C)cn4C)cn3C)cn2C)cn1C [compound 3] | distinguish T-A from G-C but again do not distinguish T-A from A-T
2.3 (0.4) × 10^9 M^−1 | 1.4 (0.2) × 10^9 M^−1 | 1.0 (0.4) × 10^7 M^−1 | 1.0 (0.3) × 10^7 M^−1 | 140 fold |  |  | Cc1ccsc1C(=O)Nc1cc(C(=O)Nc2cc(C(=O)Nc3cc(C(=O)NCCCC(=O)Nc4cn(C)c(C(=O)Nc5cc(C(=O)Nc6cc(C(=O)Nc7cc(C(=O)NCCC(=O)NCCCN(C)C)n(C)c7)n(C)c6)n(C)c5)n4)n(C)c3)n(C)c2)n(C)c1 [compound 2] | 
5.1 (0.6) × 10^9 M^−1 | 3.1 (0.3) × 10^9 M^−1 | 1.1 (0.1) × 10^9 M^−1 | 2.6 (0.3) × 10^8 M^−1 |  |  |  | CN(C)CCCNC(=O)CCNC(=O)c1cc(NC(=O)c2cc(NC(=O)c3cc(NC(=O)c4nc(NC(=O)CCCNC(=O)c5cc(NC(=O)c6cc(NC(=O)c7cc(NC(=O)c8cccn8C)cn7C)cn6C)cn5C)cn4C)cn3C)cn2C)cn1C [compound 10] | little sequence specificity
